PMC9572083, “Hybrids of 1,4-Quinone with Quinoline Derivatives: Synthesis, Biological Activity, and Molecular Docking with DT-Diaphorase (NQO1)” (Molecules, 2022)

Key:
[1] = target: T1, NQO1 (DT-diaphorase, EC 1.6.5.5, human recombinant) (Homo sapiens, UniProt P15559); assay: NQO1 substrate NADPH recycling enzymatic assay; type: biochemical; settings: compound 10 µmol/L, pH 7.4, 25 °C, absorbance at 340 nm
T1 construct: purchased Sigma-Aldrich
Experimental: The interaction between 1,4-quinone moiety of hybrid and NQO1 protein leads to reduction in quinone to hydroquinone and production of reactive oxide form (ROS). According to a literature method, the ability of hybrids 11–14 and streptonigrin (ST) to be a substrate for NQO1 was examined by measuring the oxidation of NADPH to NADP^+ [29, 32].
Compounds 11–14 (10 µmol/L) were tested as NQO1 substrates using the NADPH recycling assay according to the literature method. The recombinant NQO1 (DT-diaphorase, EC 1.6.5.5, human recombinant, Sigma-Aldrich) was used, and the oxidation of NADPH to NADP^+ was measured at the absorption wavelength of 340 nm on the BioTek 800TS microplate reader (BioKom, Janki, Poland). Compounds were dissolved in dimethyl sulfoxide (2 µL) and added to the 96-well plate. The NQO1 protein (1.4 µg/mL) in 50 mmol/L potassium phosphate buffer (pH = 7.4) was added to each well (198 µL) (Nunc Thermo Fisher Scientific, Waltham, MA, USA). Once the 96-well plate was filled with the assay solutions, except the NADPH solution, it was placed into the instrument and left to sit for 5 min before starting the measurements. The enzymatic reaction was initiated by automatically dispensing the NADPH solution into the wells, and data were recorded at 10 s intervals for 5 min at 25 °C. The linear part of the absorbance vs. time graphs (the first 20 s to 1 min) was fitted, and the slopes were calculated. NADPH oxidation rates were compared with reactions lacking the tested compound. Initial velocities were calculated, and data were expressed as µmol NADPH/µmol NQO1/min. All reactions were carried out at least in triplicate.

[2] = tested on: Colo-829 cells; assay: Cytotoxic activity, WST-1 assay, melanoma Colo-829; type: cell-based, human; settings: for SI (IC50 HFF-1/IC50 cancer line) Colo-829: HFF-1 vs Colo-829; for IC50: Homo sapiens, melanoma Colo-829, 72 h, WST-1
Source text: (§1) Anticancer activity of compounds 11–14 was designated against following human cancer cell lines: melanoma (Colo-829), ovarian cancer (SK-OV-3), breast cancer (MDA-MB-231, T47D and MCF-7), lung cancer (A549) and normal fibroblasts (HFF-1). As a reference substance, the doxorubicin was used. The results are presented in Table 1 as IC50, where IC50 means the concentration of tested compounds (µM) causing the growth inhibition of 50% for given tumor cells. The negative value (Neg.) means that the IC50 is higher than 30 µM. Selectivity index (SI) as the ratio of the IC50 for normal fibroblast (HFF-1) to IC50 of the corresponding cell line, is presented in Table S2.
(§2) Compounds 7–14 and doxorubicin were tested for cytotoxic activity in vitro against panel of human cancer cell lines: melanoma (Colo-829, ATCC, Rockville, MD, USA), ovarian cancer (SK-OV-3, ATCC, Rockville, MD, USA), breast cancer (T47D, MCF-7, and MDA-MB-231, ATCC, Rockville, MD, USA) and lung cancer (A549, ATCC, Rockville, MD, USA). The cultured cells were kept at 37 °C and 5% CO2. The cells were seeded (5 × 10^4 cells/well/[…] DMEM supplemented with 10% FCS and streptomycin/penicillin) using 96-well plates (Nunc Thermo Fisher Scientific, Waltham, MA, USA). The tested compounds 7–14 with the concentration of 1–100 µg/mL DMSO were inducted with the cancer cells for 72 h. The WST-1-formazan (proliferation reagent WST-1 assay, Roche Diagnostics, Mannheim, Germany) was detected using a microplate reader at 450 nm. Results were expressed as a mean value of at least three independent experiments performed in triplicate.

[3] = tested on: SK-OV-3 cells; assay: Cytotoxic activity, WST-1 assay, ovarian cancer SK-OV-3; type: cell-based, human; settings: for SI (IC50 HFF-1/IC50 cancer line) SK-OV-3: HFF-1 vs SK-OV-3; for IC50: Homo sapiens, ovarian cancer SK-OV-3, 72 h, WST-1
Source text: as §1, §2

[4] = tested on: MDA-MB-231 cells; assay: Cytotoxic activity, WST-1 assay, breast cancer MDA-MB-231; type: cell-based, human; settings: for SI (IC50 HFF-1/IC50 cancer line) MDA-MB-231: HFF-1 vs MDA-MB-231; for IC50: Homo sapiens, breast cancer MDA-MB-231, 72 h, WST-1
Source text: as §1, §2

[5] = tested on: T47D cells; assay: Cytotoxic activity, WST-1 assay, breast cancer T47D; type: cell-based, human; settings: for SI (IC50 HFF-1/IC50 cancer line) T47D: HFF-1 vs T47D; for IC50: Homo sapiens, breast cancer T47D, 72 h, WST-1
Source text: as §1, §2

[6] = tested on: MCF-7 cells; assay: Cytotoxic activity, WST-1 assay, breast cancer MCF-7; type: cell-based, human; settings: for SI (IC50 HFF-1/IC50 cancer line) MCF-7: HFF-1 vs MCF-7; for IC50: Homo sapiens, MCF7, breast cancer MCF-7, 72 h, WST-1
Source text: as §1, §2

[7] = tested on: A549 cells; assay: Cytotoxic activity, WST-1 assay, lung cancer A549; type: cell-based, human; settings: for SI (IC50 HFF-1/IC50 cancer line) A549: HFF-1 vs A549; for IC50: Homo sapiens, lung cancer A549, 72 h, WST-1
Source text: as §1, §2

[8] = tested on: HFF-1 cells; assay: Cytotoxic activity, WST-1 assay, normal fibroblasts HFF-1; type: cell-based; settings: Homo sapiens, normal fibroblasts HFF-1, 72 h
Source text: as §1, §2

[9] = tested on: TP53; assay: Transcriptional activity of TP53 gene in A549 cells (RT-QPCR); type: cell-based, human; settings: 24 h, concentration equal to half of IC50
Experimental: The mechanism of anticancer activity was determined by detection of transcriptional activity of the genes encoding a proliferation marker (H3 histone), cell cycle regulators (p53 and p21), and the mitochondrial apoptosis pathway (BCL-2 and BAX) (Figure 3a–d). The derivatives 11b, 12b, 13b, and 14b were selected for this study.
Transcriptional activity of genes (TP53, CDKN1A, BAX, and BCL-2) was rated by real-time RT-QPCR using Opticon™ DNA Engine system (MJ Research, Watertown, NY, USA) and QuantTect® SYBR® Green RT-PCR Kit (Qiagen, Hilden, Germany). Cultured cells were incubated with tested compounds for 24 h. RNA was extracted using Quick-RNA™ MiniPrep kit columns (Zymo Research, Irvine, CA, USA). The extracted RNA was assessed qualitatively and quantitatively. The amount and purity of the total RNA in extracts were determined spectrophotometrically (HP8452A apparatus, Hewlett Packard, Waldbronn, Germany).

T1 sequence (P15559 whole entry): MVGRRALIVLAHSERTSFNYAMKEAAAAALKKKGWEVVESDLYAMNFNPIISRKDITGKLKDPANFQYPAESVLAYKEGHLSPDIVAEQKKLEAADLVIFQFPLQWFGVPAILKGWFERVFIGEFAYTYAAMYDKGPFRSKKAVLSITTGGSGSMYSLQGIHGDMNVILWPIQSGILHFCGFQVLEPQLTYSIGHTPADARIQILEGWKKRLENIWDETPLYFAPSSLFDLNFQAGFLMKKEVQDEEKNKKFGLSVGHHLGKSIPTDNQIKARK

Compound | NQO1 activity (enzymatic conversion rate) [1] | SI (IC50 HFF-1/IC50 cancer line) Colo-829 [2] | IC50 [2] | SI (IC50 HFF-1/IC50 cancer line) SK-OV-3 [3] | IC50 [3] | SI (IC50 HFF-1/IC50 cancer line) MDA-MB-231 [4] | IC50 [4] | SI (IC50 HFF-1/IC50 cancer line) T47D [5] | IC50 [5] | SI (IC50 HFF-1/IC50 cancer line) MCF-7 [6] | IC50 [6] | SI (IC50 HFF-1/IC50 cancer line) A549 [7] | IC50 [7] | IC50 [8] | TP53 gene expression [9] | melting point
Cc1ccc2c(n1)C(=O)C(Oc1cccc3ccc(C)nc13)=C(Cl)C2=O [Compound 12b, 6-chloro-2-methyl-7-[(2-methylquinolin-8-yl)oxy]quinoline-5,8-dione] | 1437 ± 42 µmol NADPH/µmol NQO1/min | 6.01 | 1.69 ± 0.08 µM | 6.81 | 1.49 ± 0.21 µM | 6.46 | 1.57 ± 0.19 µM | 5.34 | 1.9 ± 0.23 µM | 5.70 | 1.78 ± 0.03 µM | 7.10 | 1.43 ± 0.06 µM | 10.2 ± 1.33 µM | significant increase | 130 to 132 °C
Cc1ccc2cccc(OC3=C(Cl)C(=O)c4cccnc4C3=O)c2n1 [Compound 11b, 6-chloro-7-[(2-methylquinolin-8-yl)oxy]quinoline-5,8-dione] | 1294 ± 51 µmol NADPH/µmol NQO1/min | 13.56 | 1.92 ± 0.11 µM | 15.40 | 1.69 ± 0.03 µM | 15.87 | 1.64 ± 0.15 µM | 10.76 | 2.42 ± 0.13 µM | 12.34 | 2.11 ± 0.08 µM | 14.62 | 1.78 ± 0.21 µM | 26.1 ± 1.02 µM | significant increase | 110 to 112 °C
Cc1ccc2c(n1)C(=O)C(Oc1cccc3ccc(C=O)nc13)=C(Cl)C2=O [Compound 12c, 8-[(6-chloro-2-methyl-5,8-dioxo-5,8-dihydroquinolin-7-yl)oxy]quinoline-2-carbaldehyde] | 470 ± 22 µmol NADPH/µmol NQO1/min | 1.23 | 14.6 ± 0.51 µM | 8.28 | 2.16 ± 0.19 µM | 0.85 | 21.12 ± 0.11 µM | 0.77 | 23.3 ± 1.12 µM | 0.94 | 19.1 ± 0.95 µM | 5.70 | 3.14 ± 0.43 µM | 17.9 ± 1.37 µM | – | 184 to 186 °C
Cc1ccc2c(n1)C(=O)C(Oc1cccc3cccnc13)=C(Cl)C2=O [Compound 12a, 6-chloro-2-methyl-7-(quinolin-8-yloxy)quinoline-5,8-dione] | 1505 ± 54 µmol NADPH/µmol NQO1/min | 11.41 | 1.52 ± 0.35 µM | 346.80 | 0.05 ± 0.02 µM | 8.80 | 1.97 ± 0.15 µM | 10.91 | 1.59 ± 0.15 µM | 8.30 | 2.09 ± 0.02 µM | 20.40 | 0.85 ± 0.04 µM | 17.3 ± 0.89 µM | – | 115 to 117 °C
Cc1ccc2c(n1)C(=O)C(Oc1cccc3ccc(Cl)nc13)=C(Cl)C2=O [Compound 12d, 6-chloro-2-methyl-7-[(2-chloroquinolin-8-yl)oxy]quinoline-5,8-dione] | 890 ± 21 µmol NADPH/µmol NQO1/min | 0.78 | 13.1 ± 0.49 µM | 0.67 | 15.4 ± 0.48 µM | 0.66 | 15.6 ± 0.79 µM | 0.64 | 16.2 ± 0.98 µM | 0.59 | 17.4 ± 0.82 µM | 7.04 | 1.46 ± 0.06 µM | 10.3 ± 1.65 µM | – | 120 to 122 °C
